These results are taken from PMC6585621 (Clinical Pharmacology and Therapeutics, 2018).

The nature of series [1]: Pharmacokinetics of clopidogrel and its metabolites with and without ritonavir. Format: in vivo, human. As to conditions: for C max / AUC0‐4h / AUC0‐∞ / t ½ / t max / AUC / half-life: after clopidogrel 300 mg oral; for C max / AUC0‐4h / AUC0‐∞ / t ½ / AUC / half-life: geometric mean (geometric CV); for t max: median (range); for AUC0‐4h, clopidogrel and ritonavir phase to clopidogrel phase ratio / AUC0‐∞, clopidogrel and ritonavir phase to clopidogrel phase ratio / C max, clopidogrel and ritonavir phase to clopidogrel phase ratio / t ½, clopidogrel and ritonavir phase to clopidogrel phase ratio: geometric mean ratio (90% CI); for half-life: t ½.

Series [2] concerns platelet aggregation. As to conditions: clopidogrel 300 mg, arithmetic mean (SD).
Series [3] has as its system carboxylesterase 1 (CES1). As to conditions: cited from earlier work.
The conditions of series [4]: cited from earlier work.
The format of series [5] is in vivo, human. As to conditions: for t ½ / t max / M1:dasabuvir AUC0‐23h ratio / M1:dasabuvir AUC0‐∞ ratio: after dasabuvir 250 mg oral; for t ½ / M1:dasabuvir AUC0‐23h ratio / M1:dasabuvir AUC0‐∞ ratio: geometric mean (geometric CV); for effect of ritonavir on pharmacokinetics compared to pretreatment with placebo: ritonavir 100 mg twice daily; for t max: median (range).

Series [6] relates to CYP3A4. As to conditions: in the absence of ritonavir; cited from earlier work.
For series [7] the following is noted: cited from earlier work. The source holds these as a separate data set.
A short description of series [8]: Pharmacokinetics of ritonavir with and without clopidogrel. Format: in vivo, human.
The conditions of series [9]: in humans; cited from earlier work.
The mark [10] stands for this setting: clopidogrel and ritonavir phase (ritonavir 100 mg twice daily).
Setting [11] is: clopidogrel and ritonavir phase.

Read-outs that look alike come from different tables or passages of the source.

As a reminder, the Cmax is the peak of the concentration-time curve. Usually AUC stands for the area under the concentration-time curve, a measure of exposure. The term half-life denotes the time needed for the level to fall by half in the phase considered.

With `O=C(O)[C@H]1O[C@@H](OC(=O)[C@H](c2ccccc2Cl)N2CCc3sccc3C2)[C@H](O)[C@@H](O)[C@@H]1O` [Clopidogrel acyl‐β‐D‐glucuronide, clopidogrel acyl‐β‐D‐glucuronide], the C max in series [1] (setting [10]) was 1,610 (43) ng/mL. Further, in series [1] (setting [11]), the “AUC0‐4h” value was 4,030 (45) ng·h/mL, the “AUC0‐∞” value is reported as 6,430 (46) ng·h/mL, the “t ½” value is on record as 2.02 (8.5) h and the t max is reported as 1.5 (1.5–3.0) h. In series [1] (clopidogrel phase), the “AUC0‐4h” value is on record as 3,630 (56) ng·h/mL, the “AUC0‐∞” value is given as 6,840 (53) ng·h/mL, the C max is on record as 1,420 (57) ng/mL and the “t ½” value was 2.83 (19) h. The t max in series [1] (clopidogrel phase) was 1.75 (0.92–2.0) h. In [1], the “AUC0‐4h, clopidogrel and ritonavir phase to clopidogrel phase ratio” value (“AUC0‐4h … to clopidogrel phase ratio” for short) is listed as 1.11 (0.86–1.43); the “AUC0‐∞, clopidogrel and ritonavir phase to clopidogrel phase ratio” value (shortened to “AUC0‐∞ … to clopidogrel phase ratio”) is on record as 0.94 (0.71–1.23); the “C max, clopidogrel and ritonavir phase to clopidogrel phase ratio” value (shortened to “C max … to clopidogrel phase ratio”) is listed as 1.13 (0.86–1.47); the “t ½, clopidogrel and ritonavir phase to clopidogrel phase ratio” value was 0.71 (0.63–0.81); P = 0.0007.

In the case of `O=C(O)[C@H](c1ccccc1Cl)N1CCc2sccc2C1` [Clopidogrel carboxylic acid, clopidogrel carboxylic acid], the C max in series [1] (setting [10]) is reported as 12,300 (34) ng/mL. In series [1] (setting [11]), the “AUC0‐4h” value was 27,800 (37) ng·h/mL, the “AUC0‐∞” value is reported as 41,600 (37) ng·h/mL, the “t ½” value is listed as 2.46 (12) h and the t max was 0.92 (0.92–1.5) h. In series [1] (clopidogrel phase), the “AUC0‐4h” value is recorded as 26,800 (29) ng·h/mL, the “AUC0‐∞” value is reported as 44,300 (26) ng·h/mL, the C max is 12,200 (22) ng/mL and the “t ½” value is on record as 2.98 (21) h. Besides, the t max in series [1] (clopidogrel phase) is listed as 0.92 (0.92–1.5) h. Also, in series [1], the “AUC0‐4h … to clopidogrel phase ratio” value is listed as 1.04 (0.91–1.18); the “AUC0‐∞ … to clopidogrel phase ratio” value is reported as 0.94 (0.80–1.10); the “C max … to clopidogrel phase ratio” value is on record as 1.01 (0.89–1.15); the “t ½, clopidogrel and ritonavir phase to clopidogrel phase ratio” value is given as 0.83 (0.72–0.95); P = 0.03.

As for `COC(=O)[C@H](c1ccccc1Cl)N1CCc2sccc2C1` [Clopidogrel, clopidogrel, reference compound], the “Inhibition of platelet aggregation, average inhibition at 0‐24 h” value is reported as 31 (28) % in series [2] (setting [11]) and 51 (24) % in series [2] (clopidogrel phase). Also, the “Inhibition of platelet aggregation, maximal inhibition” value is reported as 40 (29) % in series [2] (setting [11]) and 60 (23) % in series [2] (clopidogrel phase). Moreover, in series [1], the “AUC0‐4h … to clopidogrel phase ratio” value is 0.75 (0.40–1.44). For the same molecule, in series [1], the “AUC0‐∞ … to clopidogrel phase ratio” value is given as 0.75 (0.39–1.43). Besides, the “C max … to clopidogrel phase ratio” value in series [1] is listed as 0.79 (0.40–1.57). The “t ½, clopidogrel and ritonavir phase to clopidogrel phase ratio” value in series [1] is 0.89 (0.72–1.11). Further, the Cmax in series [1] (human, plasma, po, 300 mg) is 4.49 ng/mL. Also, the AUC in series [1] (human, plasma, po, 300 mg, AUC0‐4h, clopidogrel and ritonavir phase) stood at 6.44 ng·h/mL; in series [1] (human, plasma, po, 300 mg, AUC0‐4h, clopidogrel phase), 8.53 ng·h/mL; in series [1] (human, plasma, po, 300 mg, AUC0‐∞, clopidogrel and ritonavir phase), 8.14 ng·h/mL; in series [1] (human, plasma, po, 300 mg, AUC0‐∞, clopidogrel phase), 10.8 ng·h/mL. The half-life was 1.77 h in [1] (human, plasma, po, 300 mg, clopidogrel and ritonavir phase); 1.98 h in series [1] (human, plasma, po, 300 mg, clopidogrel phase). Besides, the “fraction hydrolyzed by CES1 to inactive carboxylic acid metabolite” value in [3] is recorded as “About 90%”.

`COc1c(-c2ccc3cc(NS(C)(=O)=O)ccc3c2)cc(-n2ccc(=O)[nH]c2=O)cc1C(C)(C)C` [Dasabuvir, dasabuvir, reference compound]: the “prolongation of half‐life (t ½) by concomitant gemfibrozil” value in series [4] (humans) is reported as 18 fold. Moreover, the “increase of AUC by concomitant gemfibrozil” value in series [4] (humans, during ritonavir coadministration) is recorded as 11 fold. For the same molecule, in [4] (in the presence of the CYP3A4 inhibitor ritonavir), the “fraction metabolized by CYP2C8” value is reported as more than 0.9. Also, the “highest individual increase in AUC0‐∞, clopidogrel phase vs placebo phase” value in series [5] (12 subjects) is on record as more than 10 fold. Further, in series [5] (12 subjects, clopidogrel phase vs placebo phase), the “range of individual increases of AUC0‐∞ by clopidogrel compared with placebo” value is recorded as 2.0–10.1 fold. Further, in [5] (ritonavir phase), the “t ½” value is 8.22 (25) h. Also, in series [5] (geometric mean), the “AUC0‐∞ in clopidogrel phase as % of that during placebo” value is 467%, the “AUC0‐∞ in clopidogrel–ritonavir phase as % of that during the ritonavir phase” value was determined as 389% and the “C max in clopidogrel–ritonavir phase as % of that during the ritonavir phase” value turned out to be 182%. In series [5] (geometric mean ratio (90% CI)), the “AUC0‐23h, clopidogrel and ritonavir phase to ritonavir phase ratio” value was 3.13 (2.17–4.52) P = 0.00002; the “AUC0‐∞, clopidogrel phase to placebo phase ratio” value is listed as 4.67 (3.23–6.74) P = 8·10^−7; the “C max, clopidogrel and ritonavir phase to ritonavir phase ratio” value is 1.82 (1.27–2.61) P = 0.004; the “C max, clopidogrel phase to placebo phase ratio” value is recorded as 1.63 (1.03–2.57) P = 0.07. In series [5] (geometric mean ratio (90% CI)), the “t ½, clopidogrel and ritonavir phase to ritonavir phase ratio” value is listed as 1.40 (1.14–1.73) P = 0.005; the “t ½, clopidogrel phase to placebo phase ratio” value is given as 1.84 (1.59–2.13) P = 1·10^−6. The “contribution of CYP2C8 to metabolism” value in [5] (implied from clopidogrel interaction, both with and without ritonavir) is reported as “exceed 80%”. Also, in series [5], the “effect of ritonavir on pharmacokinetics compared to pretreatment with placebo” value was “did not cause significant changes”. Besides, the “trend of lower concentrations in the ritonavir phase than in the placebo phase” value in [5] (statistically insignificant) is recorded as “–20%”. Further, in series [6], the “share of overall metabolism for which CYP3A4 is responsible” value is recorded as “about 30%”. Moreover, in series [7], the “PBPK-predicted increase of AUC by clopidogrel” value was 1.9–2.8 fold and the “implied reduction in clearance by clopidogrel (PBPK prediction)” value is on record as 47–64%.

Consider `COc1c(-c2ccc3cc(NS(C)(=O)=O)ccc3c2)cc(-n2ccc(=O)[nH]c2=O)cc1C(C)(C)CO` [M1], for which, in [5] (setting [11]), the t max is 4.0 (3.0–23) h. Besides, in [5] (clopidogrel phase), the “M1:dasabuvir AUC0‐23h ratio” value was 0.0102 (42), the “M1:dasabuvir AUC0‐∞ ratio” value was 0.0135 (32), the “t ½” value is reported as 17.3 (23) h and the t max is 4.0 (3.0–23) h. In series [5] (placebo phase), the “M1:dasabuvir AUC0‐23h ratio” value was 0.0795 (28), the “M1:dasabuvir AUC0‐∞ ratio” value is listed as 0.0774 (29), the “t ½” value was 7.87 (32) h and the t max is 4.0 (2.0–4.0) h. Moreover, in series [5] (ritonavir phase), the “M1:dasabuvir AUC0‐23h ratio” value is recorded as 0.0888 (35), the “M1:dasabuvir AUC0‐∞ ratio” value was 0.0786 (38), the “t ½” value is 7.35 (25) h and the t max is 4.0 (3.0–6.0) h. Besides, in series [5] (geometric mean), the “AUC0‐23h in clopidogrel phase as % of that during placebo phase” value was determined as 41%, the “AUC0‐23h in clopidogrel–ritonavir phase as % of that during the ritonavir phase” value was found to be 48%, the “C max in clopidogrel phase as % of that in the placebo phase” value is 20% and the “C max in clopidogrel–ritonavir phase as % of that during the ritonavir phase” value is given as 22%. Further, the “M1:dasabuvir AUC0‐∞ ratio in clopidogrel phase as % of that with placebo” value in series [5] (geometric mean) was found to be 17%. In [5] (geometric mean ratio (90% CI)), the “AUC0‐23h, clopidogrel and ritonavir phase to ritonavir phase ratio” value is 0.48 (0.32–0.71) P = 0.002; the “AUC0‐23h, clopidogrel phase to placebo phase ratio” value is 0.41 (0.26–0.65) P = 0.001; the “C max, clopidogrel and ritonavir phase to ritonavir phase ratio” value is recorded as 0.22 (0.13–0.36) P = 0.00002; the “C max, clopidogrel phase to placebo phase ratio” value was 0.20 (0.11–0.36) P = 0.00006. Further, in [5] (geometric mean ratio (90% CI)), the “M1:dasabuvir AUC0‐23h ratio, clopidogrel and ritonavir phase to ritonavir phase ratio” value was 0.14 (0.12–0.17) P = 5·10^−11; the “M1:dasabuvir AUC0‐23h ratio, clopidogrel phase to placebo phase ratio” value is recorded as 0.13 (0.11–0.15) P = 5·10^−12; the “M1:dasabuvir AUC0‐∞ ratio, clopidogrel and ritonavir phase to ritonavir phase ratio” value was 0.20 (0.17–0.25) P = 5·10^−10; the “M1:dasabuvir AUC0‐∞ ratio, clopidogrel phase to placebo phase ratio” value is given as 0.17 (0.16–0.19) P = 2·10^−14. Further, in [5] (geometric mean ratio (90% CI)), the “t ½, clopidogrel and ritonavir phase to ritonavir phase ratio” value is 1.92 (1.57–2.34) P = 0.00001; the “t ½, clopidogrel phase to placebo phase ratio” value is recorded as 2.20 (1.72–2.81) P = 0.00001. The “effect of ritonavir on pharmacokinetics compared to pretreatment with placebo” value in [5] is “did not cause significant changes”.

As for `CC(C)c1nc(CN(C)C(=O)N[C@H](C(=O)N[C@@H](Cc2ccccc2)C[C@H](O)[C@H](Cc2ccccc2)NC(=O)OCc2cncs2)C(C)C)cs1` [Ritonavir, ritonavir], the t max in series [8] (clopidogrel and ritonavir phase, median (range)) was 3.0 h; in [8] (human, plasma, oral), 1.75 h. Further, the “t ½ during coadministration of clopidogrel as % of that in the ritonavir phase” value in series [8] (geometric mean) is 112%.

As to `CC(C)(O)c1ccccc1CC[C@@H](SCC1(CC(=O)O)CC1)c1cccc(/C=C/c2ccc3ccc(Cl)cc3n2)c1` [montelukast], the “increase of AUC of CYP2C8 substrate by gemfibrozil” value (from here on “increase of AUC of CYP2C8 substrate”) in series [4] is recorded as approximately 4.5 fold.

For `CCc1ccc(CCOc2ccc(CC3SC(=O)NC3=O)cc2)nc1` (centres unmarked) [pioglitazone], the “increase of AUC of CYP2C8 substrate” value in [4] is “about 3 fold”.

Turning to `O=C(O)C[C@H](O)C[C@H](O)/C=C/c1c(C2CC2)nc2ccccc2c1-c1ccc(F)cc1` [pitavastatin], in [9], the “effect of clopidogrel on pharmacokinetics” value is listed as “not affected”.

For the molecule `CCOc1cc(CC(=O)N[C@@H](CC(C)C)c2ccccc2N2CCCCC2)ccc1C(=O)O` [repaglinide], the “increase of AUC of CYP2C8 substrate” value in [4] is recorded as approximately 8 fold.
